US20210179655A1, “Prodrugs of a JAK Inhibitor Compound for Treatment of Gastrointestinal Inflammatory Disease” (THERAVANCE BIOPHARMA R&D IP, LLC, priority 2015, published 2021)

Experiments:
[1] = target: TYK2 (Homo sapiens, UniProt P29597); assay: Biochemical JAK kinase assay (LanthaScreen) Tyk2
Experimental: A panel of four LanthaScreen JAK biochemical assays (JAK1, 2, 3 and Tyk2) were carried in a common kinase reaction buffer (50 mM HEPES, pH 7.5, 0.01% Brij-35, 10 mM MgCl2, and 1 mM EGTA). Recombinant GST-tagged JAK enzymes and a GFP-tagged STAT1 peptide substrate were obtained from Life Technologies.
Serially diluted compounds were pre-incubated with each of the four JAK enzymes and the substrate in white 384-well microplates (Corning) at ambient temperature for 1 h. ATP was subsequently added to initiate the kinase reactions in 10 μL total volume, with 1% DMSO. […] The JAK1 kinase activity was also tested at 1 mM ATP concentration. […] The plates were allowed to incubate at ambient temperature for 1 h before being read on the EnVision reader (Perkin Elmer).
For dose-response analysis, percent inhibition data were plotted vs. compound concentrations, and IC50 values were determined from a 4-parameter robust fit model with the Prism software (GraphPad Software). Results were expressed as pIC50 (negative logarithm of IC50) and subsequently converted to pKi (negative logarithm of dissociation constant, Ki) using the Cheng-Prusoff equation.

[2] = target: β-glucuronidase (Escherichia coli, UniProt P05804); assay: Metabolic stability of compound 1 in β-glucuronidase from E. coli; type: in vitro ADME; conditions: purified β-glucuronidase from E. coli, β-glucuronidase 100 Units/mL, 37° C.
Experimental: The incubations were quenched at timepoints 0, 1, 2, 3, 5, 10, 15, 30, 60, and 90 min by addition of 100 μL of ACN. Samples were diluted with water+1% formic acid (4×) and analyzed using a Thermo Q-Exactive™ LC-MS system.

[3] = Metabolic stability of comparison compounds in rat colon content; type: in vitro ADME; conditions: 10 μM in rat colonic content, up to 120 min
Experimental: Colonic fecal content was harvested from a naïve male Sprague Dawley rat and was diluted 1:10 (1 gram to 9 mL phosphate buffer) and then homogenized using a handheld Omni Tissue Master. […] A 5 μL aliquot of diluted test compound was spiked into 300 μL of rat colonic content homogenate to begin the reaction at 37° C. Aliquots (50 μL) were removed from the incubation at the following time points (0, 15, 50, 85, and 120 min) and added into 200 μL of ACN with 3% formic acid and an internal standard molecule. […] All samples were centrifuged at 2000×g for 10 min after which 50 μL of supernatant was diluted into 150 μL of water and analyzed using a Thermo Q-Exactive LC-MS system. GraphPad Prism and Microsoft Excel were used to tabulate and plot the data.

[4] = system: oxazolone-induced colitis; assay: Mouse model of oxazolone-induced colitis; type: in vivo
Experimental: Oxazolone-induced colitis is an experimental model that has a histological resemblance to human ulcerative colitis (Heller et al. […], 2002, 17, 629-638). Adult BALB/C mice (25-28 g, 9-12 weeks of age) from BioNeeds (India) were used in the assay. On day 1, animals were lightly anesthetized with isoflurane and the hairs between the shoulder were carefully removed before oxazolone (6 mg/mouse, 100 μL, 4:1 acetone: olive oil formulation) or vehicle solution was slowly applied for skin sensitization. Six days after skin sensitization, the mice were fasted overnight, anesthetized with ketamine and xylazine administered IP, and a 1 mL syringe filled with oxazolone solution, was inserted carefully ˜3.8 cm into the colon of the mouse. Animals were kept in a head down position and oxazolone (0.5 mg/50 μL/mouse in 50% ethanol) or 50% ethanol/saline was rectally instilled very slowly over a minute. The mice were held vertically (head down) for another minute to ensure that the entire oxazolone solution remained inside the colon. Drug treatment (PO, BID or TID) or vehicle was initiated the evening prior to the oxazolone intrarectal (IR) challenge. On both first (Day 1) and second (Day 2) days post-oxazolone IR challenge, the Disease Activity Index (DAI) was assessed by treatment-blinded experimenters for each mouse, according to the following subscores: stool consistency (0, normal; 2, loose; 4, diarrhea), gross bleeding and hemoccult test (0, absence; 2, blood tinged; 4, overt blood presence), and weight loss (0, none; 1, 1%-5%; 2, 6%-10%; 3, 11%-15%; 4, more than 15%); DAI=average of (stool consistency+blood presence+weight loss scores).
An area-under-the-curve (AUC) calculation based on total DAI scores was performed to track disease progression during the course of the experiment. AUC for each experimental group was calculated as: AUC=[(Day 1−Day 0)*Average (DAI Score of Day 0 & Day 1)]+[(Day 2−Day 1)*Average (DAI Score of Day 1 & Day 2)]. A Student's t-test compared the DAI AUC score of the vehicle/vehicle and vehicle/oxazolone groups to evaluate whether disease was induced following oxazolone treatment. This was followed by a one way ANOVA, with Dunnett's post hoc test, to compare the DAI AUC score of the vehicle/oxazolone and test compound/oxazolone groups. Statistical significance was defined by an α level set at p<0.05.

[5] = system: Janus kinase (JAK) family of enzymes, non-JAK enzymes, G-protein coupled receptors, ion channels and transporters; assay: Affinity/potency profiling at JAK, non-JAK enzymes, receptors, ion channels and transporters
[6] = system: splenic NK cells; assay: Immunosuppression effects in mouse splenic natural killer (NK) cells; type: in vivo
Experimental: Adult male Balb/C mice (12-14 weeks of age) from Harlan were used for the study. […] Spleens were harvested 30 min or 3 h post last dose and crushed immediately for cell subtype staining. Prior to fixation, fluorophore-labelled antibodies for CD19 (FITC; B cells), CD3e (PE; pan T cells) and DX5 (APC; NK cells) were incubated with splenocyte samples from each animal to allow for simultaneous, multiple subtype % analysis on the flow cytometer. The number of total spleen cells for each animal was measured by Scepter™ 2.0 Handheld Automated Cell Counter.
The absolute number of lymphocyte subtype population (e.g., splenic B, T and NK cells) was calculated from the percentage of each subtype times total spleen cells for each animal. A one way ANOVA, with Dunnett's post hoc test, was used to compare the splenic lymphocytes number of the vehicle and test compound groups. The a level was set at p<0.05. Data were presented as the mean SEM for each group.

[7] = Rat colon fecal homogenate stability; type: in vitro ADME; conditions: male, rat colon fecal homogenate supernatant, 10 μM, read-out: T½ (In vitro colonic stability, loss of pro-drug)
Experimental: The objective of this study was to determine the stability of the present compounds in rat colon fecal homogenate, i.e. the half-life for decomposition in the presence of the β-glucuronidase in rat colon feces.
Following sacrifice of a naïve male rat (˜300 g) by cardiac puncture exsanguination, the colon was ligated and removed to an anaerobic chamber (AS-580, Anaerobe Systems). The fecal content was removed within the chamber and was diluted 1:10 (1 gram to 9 mL phosphate buffer) and then homogenized using a handheld Omni Tissue Master. The fecal homogenate was centrifuged at 2000 g for 10 min to remove bulk and the supernatant was removed and used for the incubations.
Test articles and a positive control (sulfasalazine) were prepared as 10 mM DMSO stocks. The final substrate concentration of each assay was 10 μM (30 μM for compound 5). Reactions were started by adding a 5 μL aliquot of diluted test compound stock into 300 μL of rat fecal supernatant-homogenate. At 0, 15, 30, 60, 90, and 120 min post reaction initiation, a 50 μL aliquot was removed into 200 μL of acetonitrile with 3% formic acid and an internal standard molecule. All samples were centrifuged at 2000 g for 10 min after which 50 μL of supernatant was diluted into 150 μL of water for analysis on an LC-MS system. In vitro half-lives for loss of pro-drug were calculated as follows: (T½=0.693/elimination rate constant).

β-glucuronidase, sequence (P05804 whole entry): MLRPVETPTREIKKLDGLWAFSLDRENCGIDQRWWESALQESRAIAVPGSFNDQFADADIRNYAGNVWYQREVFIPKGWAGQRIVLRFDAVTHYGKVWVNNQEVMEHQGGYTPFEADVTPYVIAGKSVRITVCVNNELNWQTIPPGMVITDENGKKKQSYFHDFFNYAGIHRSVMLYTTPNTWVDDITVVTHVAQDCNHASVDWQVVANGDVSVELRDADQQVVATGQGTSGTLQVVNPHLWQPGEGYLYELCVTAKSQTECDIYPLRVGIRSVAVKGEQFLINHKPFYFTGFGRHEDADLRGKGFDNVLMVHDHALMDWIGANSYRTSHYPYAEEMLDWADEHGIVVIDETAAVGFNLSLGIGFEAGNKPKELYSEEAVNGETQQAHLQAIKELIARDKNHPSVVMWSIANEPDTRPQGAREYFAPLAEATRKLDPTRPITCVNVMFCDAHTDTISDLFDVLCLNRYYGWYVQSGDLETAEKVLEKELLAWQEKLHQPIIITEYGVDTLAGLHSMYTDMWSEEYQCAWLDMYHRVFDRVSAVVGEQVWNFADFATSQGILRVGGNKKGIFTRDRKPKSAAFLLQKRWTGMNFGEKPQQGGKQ
TYK2, sequence (P29597 whole entry): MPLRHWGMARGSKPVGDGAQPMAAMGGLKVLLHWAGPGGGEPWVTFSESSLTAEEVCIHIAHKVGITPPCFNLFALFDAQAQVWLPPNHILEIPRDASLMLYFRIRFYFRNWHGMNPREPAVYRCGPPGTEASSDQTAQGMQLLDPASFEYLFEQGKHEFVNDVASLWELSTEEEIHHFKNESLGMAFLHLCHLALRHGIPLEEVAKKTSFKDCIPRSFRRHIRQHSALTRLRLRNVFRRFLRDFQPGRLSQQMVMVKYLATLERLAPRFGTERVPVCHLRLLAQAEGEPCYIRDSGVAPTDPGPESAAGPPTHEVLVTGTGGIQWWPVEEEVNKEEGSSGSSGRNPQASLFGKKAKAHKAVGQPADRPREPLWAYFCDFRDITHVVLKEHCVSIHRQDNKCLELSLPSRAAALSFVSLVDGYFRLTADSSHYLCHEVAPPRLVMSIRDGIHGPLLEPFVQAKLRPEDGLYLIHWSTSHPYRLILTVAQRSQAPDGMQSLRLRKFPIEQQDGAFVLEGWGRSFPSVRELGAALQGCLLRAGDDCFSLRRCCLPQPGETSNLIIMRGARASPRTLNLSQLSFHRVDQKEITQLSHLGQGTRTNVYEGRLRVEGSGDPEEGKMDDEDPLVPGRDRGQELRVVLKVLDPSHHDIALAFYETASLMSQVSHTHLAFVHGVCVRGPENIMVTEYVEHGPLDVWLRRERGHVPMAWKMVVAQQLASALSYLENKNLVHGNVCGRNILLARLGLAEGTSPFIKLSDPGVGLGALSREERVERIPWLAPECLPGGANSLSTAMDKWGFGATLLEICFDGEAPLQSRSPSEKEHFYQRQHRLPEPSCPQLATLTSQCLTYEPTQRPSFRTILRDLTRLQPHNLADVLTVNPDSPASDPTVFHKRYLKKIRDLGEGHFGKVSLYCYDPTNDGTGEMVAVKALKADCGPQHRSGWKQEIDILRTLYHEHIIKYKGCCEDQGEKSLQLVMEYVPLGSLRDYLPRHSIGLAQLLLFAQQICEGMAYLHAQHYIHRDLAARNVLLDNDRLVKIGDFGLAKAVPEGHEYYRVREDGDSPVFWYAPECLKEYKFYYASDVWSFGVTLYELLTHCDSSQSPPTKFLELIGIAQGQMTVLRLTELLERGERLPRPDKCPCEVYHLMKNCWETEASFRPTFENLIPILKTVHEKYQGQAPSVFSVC

## C[C@@H]1CCN(C(=O)CC#N)C[C@@H]1N(C)c1ncnc2c1ccn2C(=O)N(C)CCN(C)C(=O)OCc1ccc(O[C@@H]2O[C@H](C(=O)O)[C@@H](O)[C@H](O)[C@H]2O)c([N+](=O)[O-])c1 [Compound 1, (2S,3S,4S,5R,6S)-6-(4-((((2-(4-(((3R,4R)-1-(2-cyanoacetyl)-4-methylpiperidin-3-yl)(methyl)amino)-N-methyl-7H-pyrrolo[2,3-d]pyrimidine-7-carboxamido)ethyl)(methyl)carbamoyl)oxy)methyl)-2-nitrophenoxy)-3,4,5-trihydroxytetrahydro-2H-pyran-2-carboxylic acid]
[1]
  Ki: > 1000 nM
[2]
  half-life at 30 μM: < 5 min
[3]
  generation of active metabolite from the pro-drug: generated measurable levels
[4]; 3, 10, and 60 mg/kg, PO, BID, similar magnitude to tofacitinib 30 and 60 mg/kg
  reversal of oxazolone-induced colitis (DAI AUC score): significant reversal
[4]; Effective dose that exhibits a comparable pharmacological effect in the oxazolone model compared to its vehicle
  In vivo efficacy (oxazolone colitis), effective dose: 3 mg/kg
[5]
  affinity for, or potency at, JAK enzymes, non-JAK enzymes, GPCRs, ion channels and transporters: no significant affinity for, or potency at
[6]; PO (BID) doses up to 10 mg/kg (maximum dose tested), three days, naïve mice
  splenic NK cell counts: unaffected
[6]; mouse, oral dosing for three days
  Systemic functional activity (splenic NK depletion): >10 mg/kg
[7]
  half-life at 10 μM: 1 to 15 min
